Experimental data: patent publication EP4678638A1, “NEW E3 UBIQUITIN LIGASE LIGAND, PROTEIN DEGRADATION AGENT AND USE THEREOF” (priority 2023, dated 2024)

Legend:
[1] = target: T1, human Cereblon WT GST-tagged protein (Homo sapiens, UniProt Q96SW2); assay: CRBN binding, HTRF (CEREBLON BINDING kit); conditions: Table II-2, CRBN binding screening, HTRF; for inhibition at 0.5 µM: read-out: Inhibition rate (%) at 0.5µM; for inhibition at 2 µM: read-out: Inhibition rate (%) at 2 µM
T1 construct: purchased CISBIO 64BDCRBNPEH
Method in brief: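 Competitive HTRF: GST-tagged human WT Cereblon mixed with compound, Thalidomide-Re tracer and GST Eu antibody, incubated 3 h at room temperature. Signals read at 620 and 665 nm.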

IRAK4 = target: T2, IRAK4 (Homo sapiens, UniProt Q9NWZ3); assay: Western blot degradation of IRAK4 (hPBMC); format: cell-based; conditions: Table D1
T2 construct: evaluate the effects of the compounds of the present disclosure on the expression of target proteins in cells; endogenous in cells; host or cells: hPBMC
T2 sequence (Q9NWZ3 1-460): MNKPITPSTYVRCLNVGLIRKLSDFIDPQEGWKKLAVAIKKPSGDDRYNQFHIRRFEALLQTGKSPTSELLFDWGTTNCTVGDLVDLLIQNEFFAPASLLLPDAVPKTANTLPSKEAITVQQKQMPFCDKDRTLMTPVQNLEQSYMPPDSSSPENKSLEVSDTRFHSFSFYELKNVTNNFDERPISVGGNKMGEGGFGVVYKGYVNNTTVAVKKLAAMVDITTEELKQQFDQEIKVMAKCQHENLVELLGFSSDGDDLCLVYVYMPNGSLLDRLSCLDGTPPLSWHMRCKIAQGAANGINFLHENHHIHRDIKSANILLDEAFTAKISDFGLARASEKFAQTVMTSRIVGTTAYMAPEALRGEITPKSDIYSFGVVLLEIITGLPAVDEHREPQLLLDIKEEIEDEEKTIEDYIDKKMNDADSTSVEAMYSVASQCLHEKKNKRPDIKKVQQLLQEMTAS
Method: Conventional Western blot assay was performed to evaluate the effects of the compounds of the present disclosure on the expression of target proteins in cells.
(1) Cell Seeding and Protein Harvesting: The selected cells were processed according to the cell seeding procedure and protein harvesting procedure in Table III-2. Table III-2 Cell Seeding and Protein Harvesting Procedures
(2) To the collected supernatant, 5X SDS sample loading buffer was added, followed by denaturation at 95°C for 5 minutes. The denatured samples were then separated by SDS-PAGE electrophoresis on a polyacrylamide gel. Proteins were transferred to a nitrocellulose membrane (0.45 µm NC membrane), blocked with blocking buffer at room temperature for 1 hour, and subjected to antibody incubation and development procedures according to the antibody manufacturer's instructions (Cell Signaling Technology).
Half-Maximal Degradation Concentration value (the drug concentration required for degrading proteins by 50%, abbreviated as DC50) reads method: comparing the grayscale values of Western blot bands from drug-treated samples with those from blank DMSO-treated controls, and identifying the drug concentration range at which the grayscale value is half that of the DMSO-treated control bands.
DC50 values can be calculated using ImageJ software to measure grayscale values of Western blot bands from drug-treated samples. The concentration-response curve is fitted to estimate the drug concentration corresponding to half the grayscale value.
Target protein remaining (%) refers to the percentage of target protein remaining in hPBMC cells after treatment with protein degrader compounds.
Calculation method for target protein remaining (%): Use ImageJ software to measure grayscale values of Western blot bands from drug (protein degrader)-treated samples. The grayscale value of drug-treated bands is divided by that of internal control protein bands, and the resulting quotient is normalized to obtain the relative percentage of remaining target protein after protein degrader treatment.
Target protein degradation rate (%) = 100% - target protein remaining (%).

T1 sequence (Q96SW2 whole entry): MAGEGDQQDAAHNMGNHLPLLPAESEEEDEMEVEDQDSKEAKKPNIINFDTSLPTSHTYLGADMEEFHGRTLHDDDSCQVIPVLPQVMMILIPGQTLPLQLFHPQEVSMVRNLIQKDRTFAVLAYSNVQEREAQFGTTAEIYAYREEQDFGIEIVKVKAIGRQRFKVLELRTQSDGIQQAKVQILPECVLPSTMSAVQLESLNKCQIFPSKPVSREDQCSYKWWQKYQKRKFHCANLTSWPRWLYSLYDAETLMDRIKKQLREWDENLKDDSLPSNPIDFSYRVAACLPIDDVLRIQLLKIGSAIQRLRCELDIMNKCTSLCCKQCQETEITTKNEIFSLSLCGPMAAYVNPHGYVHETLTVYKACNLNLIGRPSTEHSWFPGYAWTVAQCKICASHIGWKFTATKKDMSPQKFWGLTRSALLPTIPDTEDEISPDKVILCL

| SMILES | inhibition at 0.5 µM ([1]; at 0.5µM) [%] | inhibition at 2 µM ([1]; at 2 µM) [%] | Degradation of substrate protein IRAK4 (substrate protein remaining %) (IRAK4) | Inhibition rate (%) at 0.5µM ([1]; at 0.5µM) | Inhibition rate (%) at 2 µM ([1]; at 2 µM) |
| --- | --- | --- | --- | --- | --- |
| COc1cc2nn(C3CCN(Cc4ccc(C5CCC(=O)NC5=O)cn4)CC3)cc2cc1NC(=O)c1cccc(C(F)(F)F)c1 (stereo not drawn) [GT-07417, N-(2-(1-((5-(2,6-dioxopiperidin-3-yl)pyridin-2-yl)methyl)piperidin-4-yl)-6-methoxy-2H-indazol-5-yl)-3-(trifluoromethyl)benzamide] | 30 to 40 | 60 to 80 | A (A is defined as 0% ≤ substrate protein remaining % ≤ 80%) |  |  |
| COc1cc2nn(C3CCN(Cc4cncc(C5CCC(=O)NC5=O)c4)CC3)cc2cc1NC(=O)c1cccc(C(F)(F)F)c1 (stereo not drawn) [GT-07419, N-(2-(1-((5-(2,6-dioxopiperidin-3-yl)pyridin-3-yl)methyl)piperidin-4-yl)-6-methoxy-2H-indazol-5-yl)-3-(trifluoromethyl)benzamide] | 20 to 30 | 53 to 60 | A (A is defined as 0% ≤ substrate protein remaining % ≤ 80%) |  |  |
| COc1cc2nn(C3CCN(Cc4cncc(N5CCC(=O)NC5=O)c4)CC3)cc2cc1NC(=O)c1cccc(C(F)(F)F)n1 [GT-07533, N-(2-(1-((5-(2,4-dioxotetrahydropyrimidin-1(2H)-yl)pyridin-3-yl)methyl)piperidin-4-yl)-6-methoxy-2H-indazol-5-yl)-6-(trifluoromethyl)picolinamide] | 10 to 20 | 53 to 60 | A (A is defined as 0% ≤ substrate protein remaining % ≤ 80%) |  |  |
| CC(C)(O)c1cc2nn(C3CCN(Cc4ccnc(C5CCC(=O)NC5=O)c4)CC3)cc2cc1NC(=O)c1cccc(C(F)(F)F)n1 (stereo not drawn) [GT-07542, N-(2-(1-((2-(2,6-dioxopiperidin-3-yl)pyridin-4-yl)methyl)piperidin-4-yl)-6-(2-hydroxypropan-2-yl)-2H-indazol-5-yl)-6-(trifluoromethyl)picolinamide] | 30 to 40 | 60 to 80 | A (A is defined as 0% ≤ substrate protein remaining % ≤ 80%) |  |  |
| CC(C)(O)c1cc2nn(C3CCN(Cc4cncc(C5CCC(=O)NC5=O)c4)CC3)cc2cc1NC(=O)c1cccc(C(F)(F)F)n1 (stereo not drawn) [GT-07543, N-(2-(1-((5-(2,6-dioxopiperidin-3-yl)pyridin-3-yl)methyl)piperidin-4-yl)-6-(2-hydroxypropan-2-yl)-2H-indazol-5-yl)-6-(trifluoromethyl)picolinamide] | 30 to 40 | 60 to 80 | A (A is defined as 0% ≤ substrate protein remaining % ≤ 80%) |  |  |
| CC(C)Nc1cc(-n2ccc3cc(C#N)cnc32)ncc1C(=O)NC1CCN(Cc2cc(C3CCC(=O)NC3=O)cnc2F)CC1 (stereo not drawn) [GT-07544, 6-(5-cyano-1H-pyrrolo[2,3-b]pyridin-1-yl)-N-(1-((5-(2,6-dioxopiperidin-3-yl)-2-fluoropyridin-3-yl)methyl)piperidin-4-yl)-4-(isopropylamino)nicotinamide] | 53 to 60 | 80 to 100 | A (A is defined as 0% ≤ substrate protein remaining % ≤ 80%) |  |  |
| COc1cc2nn(C3CCN(Cc4cc(C5CCC(=O)NC5=O)cnc4F)CC3)cc2cc1NC(=O)c1cccc(C(F)(F)F)n1 (stereo not drawn) [GT-07549, N-(2-(1-((5-(2,6-dioxopiperidin-3-yl)-2-fluoropyridin-3-yl)methyl)piperidin-4-yl)-6-methoxy-2H-indazol-5-yl)-6-(trifluoromethyl)picolinamide] | 40 to 53 | 80 to 100 | A (A is defined as 0% ≤ substrate protein remaining % ≤ 80%) |  |  |
| COc1cc2nn(C3CCN(Cc4cccnc4C4CCC(=O)NC4=O)CC3)cc2cc1NC(=O)c1cccc(C(F)(F)F)n1 (stereo not drawn) [GT-07550, N-(2-(1-((2-(2,6-dioxopiperidin-3-yl)pyridin-3-yl)methyl)piperidin-4-yl)-6-methoxy-2H-indazol-5-yl)-6-(trifluoromethyl)picolinamide] |  |  | A (A is defined as 0% ≤ substrate protein remaining % ≤ 80%) |  |  |
| CC(C)(O)c1cc2nc(C3CCN(Cc4ccnc(N5CCC(=O)NC5=O)c4)CC3)sc2cc1NC(=O)c1cccc(C(F)(F)F)n1 [GT-07619, N-(2-(1-((2-(2,4-dioxotetrahydropyrimidin-1(2H)-yl)pyridin-4-yl)methyl)piperidin-4-yl)-5-(2-hydroxypropan-2-yl)benzo[d]thiazol-6-yl)-6-(trifluoromethyl)picolinamide] |  |  | A (A is defined as 0% ≤ substrate protein remaining % ≤ 80%) |  |  |
| CC(C)(O)c1cc2nc(C3CCN(Cc4ccnc(C5CCC(=O)NC5=O)c4)CC3)sc2cc1NC(=O)c1cccc(C(F)(F)F)n1 (stereo not drawn) [GT-07622, N-(2-(1-((2-(2,6-dioxopiperidin-3-yl)pyridin-4-yl)methyl)piperidin-4-yl)-5-(2-hydroxypropan-2-yl)benzo[d]thiazol-6-yl)-6-(trifluoromethyl)picolinamide] |  |  | A (A is defined as 0% ≤ substrate protein remaining % ≤ 80%) |  |  |
| CC(C)(O)c1cc2nc(C3CCN(Cc4ccc(C5CCC(=O)NC5=O)cn4)CC3)sc2cc1NC(=O)c1cccc(C(F)(F)F)n1 (stereo not drawn) [GT-07623, N-(2-(1-((5-(2,6-dioxopiperidin-3-yl)pyridin-2-yl)methyl)piperidin-4-yl)-5-(2-hydroxypropan-2-yl)benzo[d]thiazol-6-yl)-6-(trifluoromethyl)picolinamide] |  |  | A (A is defined as 0% ≤ substrate protein remaining % ≤ 80%) | a2 (20% < a2 ≤ 30%) | a6 (60% < a6 ≤ 80%) |
| CC(C)(O)c1cc2nc(C3CCN(Cc4cncc(C5CCC(=O)NC5=O)c4)CC3)sc2cc1NC(=O)c1cccc(C(F)(F)F)n1 (stereo not drawn) [GT-07624, N-(2-(1-((5-(2,6-dioxopiperidin-3-yl)pyridin-3-yl)methyl)piperidin-4-yl)-5-(2-hydroxypropan-2-yl)benzo[d]thiazol-6-yl)-6-(trifluoromethyl)picolinamide] | 20 to 30 | 60 to 80 | A (A is defined as 0% ≤ substrate protein remaining % ≤ 80%) |  |  |
| CC(C)(O)c1cc2nc(C3CCN(Cc4cccnc4C4CCC(=O)NC4=O)CC3)sc2cc1NC(=O)c1cccc(C(F)(F)F)n1 (stereo not drawn) [GT-07625, N-(2-(1-((2-(2,6-dioxopiperidin-3-yl)pyridin-3-yl)methyl)piperidin-4-yl)-5-(2-hydroxypropan-2-yl)benzo[d]thiazol-6-yl)-6-(trifluoromethyl)picolinamide] |  |  | A (A is defined as 0% ≤ substrate protein remaining % ≤ 80%) |  |  |
| CC(C)(O)c1cc2nc(C3CCN(Cc4ccnc(N5CCC(=O)NC5=O)c4)CC3)oc2cc1NC(=O)c1cccc(C(F)(F)F)n1 [GT-07627, N-(2-(1-((2-(2,4-dioxotetrahydropyrimidin-1(2H)-yl)pyridin-4-yl)methyl)piperidin-4-yl)-5-(2-hydroxypropan-2-yl)benzo[d]oxazol-6-yl)-6-(trifluoromethyl)picolinamide] |  |  | A (A is defined as 0% ≤ substrate protein remaining % ≤ 80%) |  |  |
| CC(C)(O)c1cc2nc(C3CCN(Cc4cccnc4C4CCC(=O)NC4=O)CC3)oc2cc1NC(=O)c1cccc(C(F)(F)F)n1 (stereo not drawn) [GT-07631, N-(2-(1-((2-(2,6-dioxopiperidin-3-yl)pyridin-3-yl)methyl)piperidin-4-yl)-5-(2-hydroxypropan-2-yl)benzo[d]oxazol-6-yl)-6-(trifluoromethyl)picolinamide] |  |  | A (A is defined as 0% ≤ substrate protein remaining % ≤ 80%) |  |  |
